# Measured values as given in patent publication US7056532B1, “Compositions for delivery of biological agents and methods for the preparation thereof” (Univ. Nebraska Bd. of Regents, priority 1997, dated 2006).
# Test: Binding isotherms of surfactants to block copolymer (ion-selective electrode)
# Type: physicochemical
# Conditions: FIG. 1, dodecyl- versus cetyl- substituent
# Description: While not wishing to be bound by any particular theory, it is believed that the above-described surfactants and block copolymers of opposite charge form stable complexes due to cooperative binding. (See, e.g., Goddard, In Interactions of Surfactants with Polymers and Proteins. Goddard and Ananthapadmanabhan, Eds., pp. 171 et seq., CRC Press, Boca Raton, Ann Arbor, London, Tokyo, 1992). Cooperative binding occurs in the sense that binding of surfactant molecules to the block copolymer is enhanced by the presence of other molecules of the same or a different surfactant already bound to the same copolymer. According to the cooperative binding mechanism which is believed to underlie this invention, surfactant binds electrostatically to the oppositely charged P-type segments of the block copolymer to form supramolecular complexes. These complexes are cooperatively stabilized by the interactions of the hydrophobic parts of surfactant molecules bound to the same P-type segment with each other. Indeed, it appears that without these hydrophobic interactions, formation of the desired complex would not occur. FIG. 1 presents the binding isotherms for interaction of cetylpyridinium bromide and dodecylpyridinium bromide with the polyethylene oxide-block-poly(sodium methacrylate) block copolymer. […] This binding mechanism is, in particular, characteristic for surface active biological agents. […]
structure (smiles),measurement,value
CCCCCCCCCCCC[n+]1ccccc1.[Br-] [dodecylpyridinium bromide],stability of the complex with polyethylene oxide-block-poly(sodium methacrylate),decreases the stability of the complex more than ten-fold
